Data taken from publication PMC11527646, “Pharmacological blockade of the mast cell MRGPRX2 receptor supports investigation of its relevance in skin disorders” (Frontiers in Immunology, 2024).
Entries after “also recorded” stand apart in the source; their conditions may differ. Read-outs that look alike come from different tables or passages of the source. Bridge positions count the residues as written; N and C are the ends. Peptide text beside a SMILES is read from it.

Columns and labels:
MRGPRX2 = molecular target: T1, MRGPRX2 (Homo sapiens, UniProt Q96LB1); assay: LAD2 mast cell degranulation (β-hexosaminidase release), MRGPRX2 ligand-mediated; assay type: cell-based; design: human mast cells expressing endogenous MRGPRX2; endogenous in cells; […]
T1 sequence (Q96LB1 1-330): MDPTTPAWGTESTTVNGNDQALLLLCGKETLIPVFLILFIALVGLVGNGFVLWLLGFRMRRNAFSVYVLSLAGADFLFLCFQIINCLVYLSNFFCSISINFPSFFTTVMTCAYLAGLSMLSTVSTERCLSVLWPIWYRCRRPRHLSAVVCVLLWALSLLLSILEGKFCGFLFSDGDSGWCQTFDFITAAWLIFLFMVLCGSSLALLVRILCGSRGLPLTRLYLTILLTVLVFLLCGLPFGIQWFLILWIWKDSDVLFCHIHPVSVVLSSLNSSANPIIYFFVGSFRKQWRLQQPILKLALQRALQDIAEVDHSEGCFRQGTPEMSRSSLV
Experimental: Two different in vitro human mast cell systems were studied: (a) a human mast cell line, LAD2, established from a patient with mast cell sarcoma; and (b) mast cells freshly isolated from human skin. MRGPRX2 antagonist IC50 values were determined in the LAD2 mast cell degranulation assay using approximately EC80 concentrations for five different MRGPRX2 activating ligands (see Supplementary Figure 1 ).

human basophils = assay: Histamine release from human blood basophils (buffy coats); assay type: cell-based; details: 0.2–25 μM; non-allergic or allergic donors, with or without anti-IgE pre-incubation
Experimental: Blood bank buffy coats were screened for reactions against 10 inhalant allergens (grass, birch, mugwort, cat, dog, horse, Dermatophagoides pteronyssinus, Dermatophagoides farinae, Cladosporium, and Alternaria) and 10 food allergens (milk, egg, wheat, peanut, hazelnut, kiwi, cod fish, shrimp, celeriac, and soy). Five buffy coats with histamine release > 30 ng/mL to any of the tested allergens and with a histamine release to blood with anti-IgE > 30 ng/mL were included as allergic donors. Further, five buffy coats with histamine release < 10 ng/mL to any of the above-mentioned allergens and with a histamine release to blood with anti-IgE > 25 ng/mL were included as non-allergic donors.
The buffy coats were pre-incubated for 30 min at 37°C with either buffer or anti-human IgE in concentrations ranging from 0.04 µg/mL to 5 µg/mL. […] Following pre-incubation with anti-IgE and incubation with SP, released histamine was quantified as previously described ([14]). Briefly, histamine was bound to a glass fiber matrix at the bottom of microtiter plates and after a series of wash steps coupled to ortho-phtaldialdehyde before being detected fluorometrically in the Histareader™ 501 (RefLab ApS, Copenhagen, Denmark). […]
Anti-IgE pre-stimulation. Histamine release measured in blood samples pre-incubated with various concentrations of anti-lgE for 30 mins, followed by 1 hour incubation with various […]

CC[C@H](C)[C@H](NC(=O)CNC(=O)[C@H](CC(=O)O)NC(=O)[C@H](CO)NC(=O)[C@@H](N)Cc1cnc[nH]1)C(=O)N[C@@H](Cc1ccccc1)C(=O)N[C@H](C(=O)N[C@@H](CC(=O)O)C(=O)N[C@@H](CO)C(=O)N[C@@H](Cc1ccc(O)cc1)C(=O)N[C@@H](CO)C(=O)N[C@@H](CCCNC(=N)N)C(=O)N[C@@H](Cc1ccc(O)cc1)C(=O)N[C@@H](CCCNC(=N)N)C(=O)N[C@@H](CCCCN)C(=O)N[C@@H](CCC(N)=O)C(=O)N[C@@H](CCSC)C(=O)N[C@@H](C)C(=O)N[C@H](C(=O)N[C@@H](CCCCN)C(=O)N[C@@H](CCCCN)C(=O)N[C@@H](Cc1ccc(O)cc1)C(=O)N[C@@H](CC(C)C)C(=O)N[C@@H](C)C(=O)N[C@@H](C)C(=O)N[C@H](C(=O)N[C@@H](CC(C)C)C(N)=O)C(C)C)C(C)C)[C@@H](C)O [PACAP-27, reference compound]
EC50 (MRGPRX2): 218 nM

C[C@@H](O)[C@@H]1NC(=O)[C@H](CCCCN)NC(=O)[C@H](Cc2c[nH]c3ccccc23)NC(=O)[C@H](Cc2ccccc2)NC(=O)[C@H](Cc2ccccc2)NC(=O)[C@H](CC(N)=O)NC(=O)[C@H](CCCCN)NC(=O)[C@@H](NC(=O)[C@@H]2CCCN2)CSSC[C@@H](C(=O)N[C@@H](CCCCN)C(=O)O)NC(=O)[C@H](CO)NC(=O)[C@H](CO)NC(=O)[C@H](Cc2ccccc2)NC1=O [Cortistatin 14, reference compound] (H-PCKNFFWKTFSSCK-OH; disulfide 2-13; N-terminus and C-terminus assumed)
EC50 (MRGPRX2; representative dose response curves, read-out: LAD2 mast cell degranulation agonist EC50): 67 nM

COc1ccc(-n2nnnc2C(F)(F)F)cc1CN[C@H]1CCCN[C@H]1c1ccccc1 [vofopitant, reference compound]
Influence on Substance P-mediated mast cell degranulation (MRGPRX2; Substance P 1 μM, β-hexosaminidase release, n = 8): has no influence; also recorded: unaltered

CSCC[C@H](NC(=O)[C@H](CC(C)C)NC(=O)CNC(=O)[C@H](Cc1ccccc1)NC(=O)[C@H](Cc1ccccc1)NC(=O)[C@H](CCC(N)=O)NC(=O)[C@H](CCC(N)=O)NC(=O)[C@@H]1CCCN1C(=O)[C@H](CCCCN)NC(=O)[C@@H]1CCCN1C(=O)[C@@H](N)CCCN=C(N)N)C(N)=O [Substance P]
Histamine release response of basophils (human basophils): no SP response could be detected
